Assay [1] relates to serum albumins (HSA, BSA, PSA, RSA). Briefly: Fluorescence quenching, summary over the tested albumins. The settings on record: PBS pH 7.4, approximate over the albumins tested. The format is binding, human, bovine, porcine, rat. As to the method: Fluorescence emission spectra were collected at 25 °C using a Hitachi F-4500 fluorescence spectrophotometer (Tokyo, Japan). The quenching effects of AG, AMG, and Z14Glr (each 0–5 μM) on the emission signals of albumins (2 μM each) were examined at 340 nm in phosphate-buffered saline (PBS, pH 7.4). UV–vis measurements were performed at 25 °C in PBS, employing a Jasco V730 UV–vis spectrophotometer (Tokyo, Japan). Thereafter, we corrected the inner-filter effects of the mycotoxins, as previously reported. Stern–Volmer quenching constants (KSV; L/mol) were calculated with the graphical application of the Stern–Volmer equation [11, 29]:(1) I0/I=1+KSV×Q where I0 and I are the emission intensities of the protein without and with the quencher, respectively, while [Q] is the concentration (mol/L) of the quencher (mycotoxin). The binding constants (K; L/mol) of mycotoxin–albumin complexes were determined with nonlinear fitting, using the HyperQuad2006 software (version 3.1; Protonic Software GmbH, Hanau, Germany), as described previously.
The KSV and K values of mycotoxin–albumin complexes were determined using the Stern–Volmer equation (Equation (1)) and the HyperQuad2006 software (see data in Table 1 and Table 2, respectively). […] The logKSV and logK values of the mycotoxin–albumin complexes were in good agreement (Table 1 and Table 2).

A short description of assay [2]: Fluorescence spectroscopic study of mycotoxin-SBECD complex formation. As to conditions: for SBECD logK ± SEM (binding constant): Benesi–Hildebrand, 0.05 M sodium acetate pH 5.0, mycotoxin 1 μM, n = 3; for SBECD-induced increase in the emission signal of the mycotoxin: SBECD 0–10 mM, mycotoxin 1 μM, sodium acetate pH 5.0. The class given is binding. As to the method:
The impacts of SBECD (0–10 mM) and SGD (0–5 mM) on the emission signals of mycotoxins (1 μM each) were tested in sodium acetate buffer (0.05 M, pH 5.0). Mycotoxin–CD interactions were evaluated using the Benesi–Hildebrand equation [11, 31], assuming 1:1 stoichiometry of complex formation:(2) F0/F−F0=1/A+1/A×K×[CD] where K (L/mol) is the binding constant, F0 is the emission signal of the mycotoxin without the host molecules, F is the emission signal of the mycotoxin with CDs, A is a constant, and [CD] is the molar concentration (mol/L) of the host molecules.
Therefore, CD-induced elevation in the fluorescence emission intensities of mycotoxins was examined.
Based on the emission signals at 455 nm, the binding constants of ligand–CD complexes were calculated using the Benesi–Hildebrand equation (Equation (2)). Background corrections were performed in each experiment. […] Glucose and glucuronic acid are bulky, hydrophilic molecules; therefore, it is reasonable to hypothesize that these substituents make the inclusion of AG, AMG, and Z14Glr by the apolar CD cavity difficult.

Assay [3] addresses T1, human serum albumin (HSA) (Homo sapiens, UniProt P02768).
T1 construct: purchased Merck (Darmstadt, Germany)
Briefly: Ultracentrifugation study of mycotoxin-HSA binding. As to the method: To confirm the data calculated based on fluorescence quenching studies, ultracentrifugation experiments were also performed. With the proper conditions of ultracentrifugation, albumin (with the bound ligands) can be sedimented. The samples (final volume: 500 μL) contained AG, AMG, or Z14Glr (5 μM each) with HSA (60 or 180 μM) dissolved in PBS. Centrifugation (16 h, 170,000× g, 20 °C) was performed using 11 × 34 mm PC tubes (Beckman Coulter, Brea, CA, US) and a Beckman Coulter Optima MAX-XP tabletop ultracentrifuge (fixed-angle rotor). The unbound fractions of mycotoxins were determined in the protein-free supernatant by HPLC-FLD (see details in Section 2.5), as previously reported. (3) K=[LA]/L×[A] where [L], [A], and [LA] are the concentrations (mol/L) of the ligand (unbound), albumin (unbound), and the ligand–albumin complex, respectively.
Furthermore, to test the impact of environmental pH on the stability of mycotoxin–albumin complexes, the abovementioned experiments were also performed in 0.05 M sodium acetate (pH 5.0) and 0.05 M sodium borate (pH 8.5) buffers.
To confirm the binding constants determined in the quenching experiments, and to get insight into the interaction of Z14Glr with HSA, ultracentrifugation studies were also performed. In these investigations, albumins (with the ligands bound) were sedimented, and then the concentrations of the unbound mycotoxins were quantified from the supernatants.

Assay [4] addresses T2, rat serum albumin (RSA) (Rattus norvegicus, UniProt P02770).
T2 construct: purchased Merck (Darmstadt, Germany)
The experiment in a line: Ultracentrifugation study of Z14Glr-RSA binding. The settings on record: PBS pH 7.4, read-out: logK of the Z14Glr–RSA complex (converted).

Setting [5] is: 0.05 M sodium acetate pH 5.0, mycotoxin 5 μM, n = 3, read-out: HSA pH 5.0 logK ± SEM (binding constant) (converted).
[6] abbreviates: 0.05 M sodium borate pH 8.5, mycotoxin 5 μM, n = 3, read-out: HSA pH 8.5 logK ± SEM (binding constant) (converted).
Setting [7] is: PBS pH 7.4, mycotoxin 5 μM, n = 3, read-out: HSA pH 7.4 logK ± SEM (binding constant) (converted).

Values joined by “and” are separate entries in the source; they are usually repeats but may differ in a detail not shown here. Equal entries are not always repeated. Where two headings read alike, the source gives them in different places.

T1 sequence (P02768 25-609): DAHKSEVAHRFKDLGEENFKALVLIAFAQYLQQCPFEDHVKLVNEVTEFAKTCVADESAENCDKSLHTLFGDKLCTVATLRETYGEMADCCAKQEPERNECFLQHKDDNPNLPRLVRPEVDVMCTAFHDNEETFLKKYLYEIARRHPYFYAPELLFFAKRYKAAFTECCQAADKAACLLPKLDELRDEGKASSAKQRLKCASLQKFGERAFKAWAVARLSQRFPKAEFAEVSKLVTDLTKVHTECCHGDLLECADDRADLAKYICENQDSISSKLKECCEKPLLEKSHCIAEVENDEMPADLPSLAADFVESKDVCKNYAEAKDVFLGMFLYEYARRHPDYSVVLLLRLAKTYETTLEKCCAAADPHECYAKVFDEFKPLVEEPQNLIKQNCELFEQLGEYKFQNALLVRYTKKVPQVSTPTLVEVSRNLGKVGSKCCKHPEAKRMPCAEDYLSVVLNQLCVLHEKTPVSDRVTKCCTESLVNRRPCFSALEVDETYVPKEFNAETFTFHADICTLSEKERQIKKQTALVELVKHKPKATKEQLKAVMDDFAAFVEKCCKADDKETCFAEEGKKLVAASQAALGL
T2 sequence (P02770 25-608): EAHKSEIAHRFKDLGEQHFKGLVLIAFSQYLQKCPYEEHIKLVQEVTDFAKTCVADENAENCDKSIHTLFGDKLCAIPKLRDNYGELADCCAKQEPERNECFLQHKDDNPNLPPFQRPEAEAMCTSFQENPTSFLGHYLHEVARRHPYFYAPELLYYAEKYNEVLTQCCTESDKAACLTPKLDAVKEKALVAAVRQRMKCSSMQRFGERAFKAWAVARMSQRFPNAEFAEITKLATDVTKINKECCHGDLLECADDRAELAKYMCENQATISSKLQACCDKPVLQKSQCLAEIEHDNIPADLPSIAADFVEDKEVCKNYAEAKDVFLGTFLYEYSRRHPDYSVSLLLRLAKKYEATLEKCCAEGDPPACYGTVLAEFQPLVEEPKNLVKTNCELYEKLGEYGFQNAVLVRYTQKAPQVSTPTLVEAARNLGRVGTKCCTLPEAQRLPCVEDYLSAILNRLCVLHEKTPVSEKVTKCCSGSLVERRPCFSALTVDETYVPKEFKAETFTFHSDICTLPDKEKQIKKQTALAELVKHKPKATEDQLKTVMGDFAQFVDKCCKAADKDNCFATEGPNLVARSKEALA

Take `Cc1cc(OC2O[C@H](CO)[C@@H](O)[C@H](O)[C@H]2O)cc2oc(=O)c3c(O)cc(O)cc3c12` (stereo partly shown) [AG, alternariol-3-glucoside]: the “binding constant K of mycotoxin–albumin complexes” value in assay [1] was “≈ 3 × 10^4 L/mol”. Further, in assay [2], the “SBECD logK ± SEM (binding constant)” value worked out at 2.92 ± 0.05 L/mol. Further, the “SBECD-induced increase in the emission signal of the mycotoxin” value (from here on “SBECD-induced increase”) in assay [2] is given as “threefold elevation”. Moreover, the Kd in assay [3] (setting [5]) was 33.1 µM; in assay [3] (setting [6]), 39.8 µM; in assay [3] (setting [7]), 57.5 µM.

For the compound `COc1cc(O)c2c(=O)oc3cc(OC4O[C@H](CO)[C@@H](O)[C@H](O)[C@H]4O)cc(C)c3c2c1` (stereo partly shown) [AMG, alternariol-9-monomethylether-3-glucoside], in assay [1], the “binding constant K of mycotoxin–albumin complexes” value is listed as “≈ 3 × 10^4 L/mol”. In assay [2], the “SBECD logK ± SEM (binding constant)” value was found to be 2.79 ± 0.08 L/mol. In assay [2], the “SBECD-induced increase” value is “threefold elevation”. The “affinity toward HSA at pH 8.5 relative to pH 5.0” value in assay [3] is “approximately 17 fold”. For the same compound, the Kd in assay [3] (setting [5]) is 151 µM; in assay [3] (setting [6]) it was 8.91 µM; in assay [3] (setting [7]), 79.4 µM and 77.6 µM.

For the compound `C[C@H]1CCCC(=O)CCC/C=C/c2cc(O[C@@H]3OC(C(=O)O)[C@@H](O)C(O)C3O)cc(O)c2C(=O)O1` (stereo partly drawn) [Z14Glr, zearalenone-14-β,D-glucuronide], the Kd in assay [4] is 13.5 µM; in assay [3] (setting [5]), 25.7 µM; in assay [3] (setting [6]), 58.9 µM; in assay [3] (setting [7]), 63.1 µM and 60.3 µM. For the same compound, in assay [2], the “SBECD logK ± SEM (binding constant)” value worked out at 2.32 ± 0.12 L/mol. The “SBECD-induced increase” value in assay [2] is given as “ninefold”.

Values taken from article PMC10059066, “Probing Serum Albumins and Cyclodextrins as Binders of the Mycotoxin Metabolites Alternariol-3-Glucoside, Alternariol-9-Monomethylether-3-Glucoside, and Zearalenone-14-Glucuronide” (Metabolites, 2023).
